# Measurements as given in patent US12480137B2, “Plants having increased tolerance to herbicides” (BASF SE, priority 2014, dated 2025).
# Assays:
# Assay type in all cases: in vivo, Arabidopsis thaliana
# [1] = system: Arabidopsis mutant line Cesa3_S1037F; assay: Growth inhibition of Arabidopsis lines in 48-well plates, tolerance factor from IC50; conditions: growth inhibition seven to ten days after seeding
# Source text: (§1) For selection of cellulose biosynthesis inhibitor resistant plants EMS mutagenized seed populations of Arabidopsis thaliana are used. EMS mutagenized seed populations are either bought from Lehle Seeds (1102 South Industrial Blvd. Suite D, Round Rock, Texas USA) or are generated as described elsewhere (Heim D R, et. al. (1989) Plant Physiol. 90: 146-150). Causative mutations in CESA wildtype sequences (e.g. SEQ ID NO: 1 or 3) are identified as described by Scheible W R et. al. (2001, Proc. Natl. Acad. of Sci. 98: 10079-10084), McCourt et. al. (WO2013/142968) or with the use of next generation sequencing methods as described by Austin R S, et. al. (2011) Plant Journal 67: 715-725.
# (§2) Selected Arabidopsis thaliana lines were assayed for improved resistance to azines like 6-cyclopentyl-N4-(2,3,4,5,6-pentafluorophenyl)-1,3,5-triazine-2,4-diamine; 6-(1-fluoro-1-methyl-ethyl)-N4-(2,3,4,5,6-pentafluorophenyl)-1,3,5-triazine-2,4-diamine; 6-cyclohexyl-N2-(2,3,4,5,6-pentafluorophenyl)-1,3,5-triazine-2,4-diamine; 6-(2,6-difluorophenyl)-N2-(2,3,5,6-tetrafluorophenyl)-1,3,5-triazine-2,4-diamine; N2-(4-chloro-3,5,6-trifluoro-2-pyridyl)-6-(1-fluoro-1-methyl-ethyl)-1,3,5-triazine-2,4-diamine in 48-well plates. Therefore, M2 or M3 seeds are surface sterilized by stirring for 5 min in ethanol+water (70+30 by volume), rinsing one time with ethanol+water (70+30 by volume) and two times with sterile, deionized water. The seeds are resuspended in 0.1% agar dissolved in water (w/v) Four to five seeds per well are plated on solid nutrient medium consisting of half-strength murashige skoog nutrient solution, pH 5.8 (Murashige and Skoog (1962) Physiologia Plantarum 15: 473-497). Compounds are dissolved in dimethylsulfoxid (DMSO) and added to the medium prior solidification (final DMSO concentration 0.1%). Multi well plates are incubated in a growth chamber at 22° C., 75% relative humidity and 110 μmol Phot*m^−2*s^−1 with 14:10 h light:dark photoperiod. Growth inhibition is evaluated seven to ten days after seeding in comparison to wild type plants. Tolerance factors are calculated based on IC50 values of growth inhibition of transformed versus non-transformed Arabidopsis plants (Table 3).
# [2] = system: Arabidopsis mutant line Cesa1_G1013R; assay: as above; conditions: growth inhibition seven to ten days after seeding
# Source text: as §1, §2
# [3] = system: Arabidopsis mutant line Cesa1_P1010L; assay: as above; conditions: growth inhibition seven to ten days after seeding
# Source text: as §1, §2
# [4] = system: Arabidopsis mutant line Cesa3_S983F; assay: as above; conditions: growth inhibition seven to ten days after seeding
# Source text: as §1, §2
# [5] = system: Arabidopsis mutant line Cesa1_G1009D; assay: as above; conditions: growth inhibition seven to ten days after seeding
# Source text: as §1, §2
# [6] = system: wildtype Arabidopsis plants; assay: as above; conditions: growth inhibition seven to ten days after seeding
# Source text: as §1, §2
# [7] = system: Arabidopsis mutant line Cesa3_S1040L; assay: as above; conditions: growth inhibition seven to ten days after seeding
# Source text: as §1, §2
# [8] = system: Cesa3_S983F, fpx1-3 mutant line; assay: Greenhouse phytotox, pre-emergent treatment
# Method: (§3) Additionally, M2 or M3 Arabidopsis plants are tested for improved tolerance to cellulose biosynthesis-inhibiting herbicides in greenhouse studies (e. g. with the following cellulose biosynthesis-inhibiting herbicides: 6-cyclopentyl-N4-(2,3,4,5,6-pentafluorophenyl)-1,3,5-triazine-2,4-diamine; 6-(1-fluoro-1-methyl-ethyl)-N4-(2,3,4,5,6-pentafluorophenyl)-1,3,5-triazine-2,4-diamine; N4-(4-chloro-3,5,6-trifluoro-2-pyridyl)-6-(1-fluoro-1-methyl-ethyl)-1,3,5-triazine-2,4-diamine; 6-(2,6-difluorophenyl)-N4-(2,3,5,6-tetrafluorophenyl)-1,3,5-triazine-2,4-diamine; N4-(4-bromo-2,3,5,6-tetrafluoro-phenyl)-6-(1-fluoro-1-methyl-ethyl)-1,3,5-triazine-2,4-diamine.
# [9] = system: Cesa3_S1037F, fpx1-2 mutant line; assay: Greenhouse phytotox, pre-emergent treatment
# Method: as §3
# [10] = system: Cesa1_P1010L, fpx2-2 mutant line; assay: Greenhouse phytotox, pre-emergent treatment
# Method: as §3
# [11] = system: Cesa1_G1009D, fpx2-3 mutant line; assay: Greenhouse phytotox, pre-emergent treatment
# Method: as §3
# [12] = system: A. thaliana WT L. erecta; assay: Greenhouse phytotox, pre-emergent treatment
# Method: as §3
# [13] = system: Cesa1_G1013R, fpx2-1 mutant line; assay: Greenhouse phytotox, pre-emergent treatment
# Method: as §3
# [14] = system: Cesa3_S1040L, fpx1-1 mutant line; assay: Greenhouse phytotox, pre-emergent treatment
# Method: as §3
structure (smiles),measurement,setting,value
"CC(C)(F)c1nc(N)nc(Nc2nc(F)c(F)c(Cl)c2F)n1 [N2-(4-chloro-3,5,6-trifluoro-2-pyridyl)-6-(1-fluoro-1-methyl-ethyl)-1,3,5-triazine-2,4-diamine]",Relative tolerance rate (wildtype = 1.0),[1],10
same,Relative tolerance rate (wildtype = 1.0),[2],10
same,Relative tolerance rate (wildtype = 1.0),[3],1
same,Relative tolerance rate (wildtype = 1.0),[4],4
same,Relative tolerance rate (wildtype = 1.0),[5],1
same,Relative tolerance rate (wildtype = 1.0),[6],1
same,Relative tolerance rate (wildtype = 1.0),[7],4
same,Phytotox value on a scale from 0-100 (100 is 100% damage),[8]; 0.0625 g ai/ha,23
same,Phytotox value on a scale from 0-100 (100 is 100% damage),[8]; 0.25 g ai/ha,55
same,Phytotox value on a scale from 0-100 (100 is 100% damage),[8]; 0.98 g ai/ha,48
same,Phytotox value on a scale from 0-100 (100 is 100% damage),[8]; 3.91 g ai/ha,13
same,Phytotox value on a scale from 0-100 (100 is 100% damage),[9]; 0.0625 g ai/ha,5
same,Phytotox value on a scale from 0-100 (100 is 100% damage),[9]; 0.25 g ai/ha,15
same,Phytotox value on a scale from 0-100 (100 is 100% damage),[9]; 0.98 g ai/ha,25
same,Phytotox value on a scale from 0-100 (100 is 100% damage),[9]; 3.91 g ai/ha,25
same,Phytotox value on a scale from 0-100 (100 is 100% damage),[10]; 0.0625 g ai/ha,50
same,Phytotox value on a scale from 0-100 (100 is 100% damage),[10]; 0.25 g ai/ha,25
same,Phytotox value on a scale from 0-100 (100 is 100% damage),[10]; 0.98 g ai/ha,78
same,Phytotox value on a scale from 0-100 (100 is 100% damage),[10]; 3.91 g ai/ha,98
same,Phytotox value on a scale from 0-100 (100 is 100% damage),[11]; 0.0625 g ai/ha,30
same,Phytotox value on a scale from 0-100 (100 is 100% damage),[11]; 0.25 g ai/ha,43
same,Phytotox value on a scale from 0-100 (100 is 100% damage),[11]; 0.98 g ai/ha,93
same,Phytotox value on a scale from 0-100 (100 is 100% damage),[11]; 3.91 g ai/ha,99
same,Phytotox value on a scale from 0-100 (100 is 100% damage),[12]; 0.0625 g ai/ha,45
same,Phytotox value on a scale from 0-100 (100 is 100% damage),[12]; 0.25 g ai/ha,60
same,Phytotox value on a scale from 0-100 (100 is 100% damage),[12]; 0.98 g ai/ha,83
same,Phytotox value on a scale from 0-100 (100 is 100% damage),[12]; 3.91 g ai/ha,99
same,Phytotox value on a scale from 0-100 (100 is 100% damage),[13]; 0.0625 g ai/ha,40
same,Phytotox value on a scale from 0-100 (100 is 100% damage),[13]; 0.25 g ai/ha,50
same,Phytotox value on a scale from 0-100 (100 is 100% damage),[13]; 0.98 g ai/ha,70
same,Phytotox value on a scale from 0-100 (100 is 100% damage),[13]; 3.91 g ai/ha,80
same,Phytotox value on a scale from 0-100 (100 is 100% damage),[14]; 0.0625 g ai/ha,13
same,Phytotox value on a scale from 0-100 (100 is 100% damage),[14]; 0.25 g ai/ha,15
same,Phytotox value on a scale from 0-100 (100 is 100% damage),[14]; 0.98 g ai/ha,78
same,Phytotox value on a scale from 0-100 (100 is 100% damage),[14]; 3.91 g ai/ha,53
